Assay: Solubility of compound in PBS at pH 7.4 at 100 uM incubated for 120 mins by LC-MS/MS analysis
Assay type: physicochemical
Conditions: buffer, pH 7.4, 2 h

Row | solubility | SMILES
1 | Soluble | O=C(N[C@H]1CCNC1)[C@@H]1[C@H]2C[C@H]3c4[nH]c5ccccc5c4CCN3C[C@@H]2CC[C@@H]1O
2 | Soluble | O=C(O[C@H]1CCNC1)[C@@H]1[C@H]2C[C@H]3c4[nH]c5ccccc5c4CCN3C[C@@H]2CC[C@@H]1O
3 | Soluble | O=C(OC[C@H]1CCCN1)[C@@H]1[C@H]2C[C@H]3c4[nH]c5ccccc5c4CCN3C[C@@H]2CC[C@@H]1O
4 | Soluble | N[C@H]1C[C@H](OC(=O)[C@@H]2[C@H]3C[C@H]4c5[nH]c6ccccc6c5CCN4C[C@@H]3CC[C@@H]2O)C1
5 | Soluble | O=C(O[C@@H]1CCNC1)[C@@H]1[C@H]2C[C@H]3c4[nH]c5ccccc5c4CCN3C[C@@H]2CC[C@@H]1O
6 | Soluble | O=C(OC[C@H]1CCN1)[C@@H]1[C@H]2C[C@H]3c4[nH]c5ccccc5c4CCN3C[C@@H]2CC[C@@H]1O
7 | Soluble | CC(C)OC(=O)[C@@H]1[C@H]2C[C@H]3c4[nH]c5ccccc5c4CCN3C[C@@H]2CC[C@@H]1O
8 | Soluble | CNCCOC(=O)[C@@H]1[C@H]2C[C@H]3c4[nH]c5ccccc5c4CCN3C[C@@H]2CC[C@@H]1O
9 | Soluble | N[C@H]1C[C@@H](OC(=O)[C@@H]2[C@H]3C[C@H]4c5[nH]c6ccccc6c5CCN4C[C@@H]3CC[C@@H]2O)C1
10 | Soluble | O=C(O[C@H]1CCOC1)[C@@H]1[C@H]2C[C@H]3c4[nH]c5ccccc5c4CCN3C[C@@H]2CC[C@@H]1O
11 | Soluble | O=C(OC1CNC1)[C@@H]1[C@H]2C[C@H]3c4[nH]c5ccccc5c4CCN3C[C@@H]2CC[C@@H]1O
12 | Soluble | O=C(OC[C@H]1CCNC1)[C@@H]1[C@H]2C[C@H]3c4[nH]c5ccccc5c4CCN3C[C@@H]2CC[C@@H]1O
13 | Soluble | CN1CC[C@H](OC(=O)[C@@H]2[C@H]3C[C@H]4c5[nH]c6ccccc6c5CCN4C[C@@H]3CC[C@@H]2O)C1
14 | Soluble | O=C(OC[C@@H]1CCNC1)[C@@H]1[C@H]2C[C@H]3c4[nH]c5ccccc5c4CCN3C[C@@H]2CC[C@@H]1O
15 | Soluble | O=C(OC1COC1)[C@@H]1[C@H]2C[C@H]3c4[nH]c5ccccc5c4CCN3C[C@@H]2CC[C@@H]1O
16 | Soluble | O=C(OC1CCNCC1)[C@@H]1[C@H]2C[C@H]3c4[nH]c5ccccc5c4CCN3C[C@@H]2CC[C@@H]1O
17 | Soluble | CCOC(=O)[C@@H]1[C@H]2C[C@H]3c4[nH]c5ccccc5c4CCN3C[C@@H]2CC[C@@H]1O

— ChEMBL document CHEMBL5500395 (J Med Chem, 2024)
